Reference: ChEMBL document CHEMBL1201862, “PubChem BioAssay data set” (2004)
Blank lines part the entries; values can stand above or below the compound they belong to. Active and inactive are the calls of the source.

Tests used:
[1] = inhibitors of Vif binding to APOBEC3G peptide, primary screen, biochemical, TR-FRET, GST-Vif 1-94, biotin-A3G peptide, dose response retest (AID 1117319); assay type: functional;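 also: TR-FRET signal of purified GST-Vif binding a biotinylated A3G peptide; inhibitors lower the FRET signal by blocking Vif and A3G binding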
[2] = system: Streptococcus sp. 'group A'; assay: growth inhibition of control SK(-) GAS strain, dose response, counter-screen for streptokinase expression inhibitor project, luminescence, kanamycin, BacTiterGlo, confirmation (AID 1900); assay type: functional, organism-based
Streptococcus = assay: Group A Streptococcus viability loss, dose response, counter-screen for streptokinase expression inhibitor project, luminescence, BacTiterGlo (AID 1915); assay type: functional, organism-based;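 also: potency for reduction of bacterial viability or growth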
[3] = human group III sPLA2 inhibitors, dose response, biochemical, QFRET, IC50 (AID 743457);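 also: green fluorescence rise as the enzyme cleaves BODIPY PC-A2 in liposomes; potency for inhibition of the enzyme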
HEK293 = assay: inhibitors of LMP1-driven NF-kB reporter, dose response, cell-based, HEK293, luciferase, cherry-pick (AID 588343); assay type: functional; conditions: Homo sapiens
[4] = A549 cell cytotoxicity, dose response, cytotoxicity control, plate reader, cherry-pick, antagonist series (AID 743412); assay type: functional, cell-based
[5] = LGR2 antagonists, dose response, cell-based, HEK293, CRE-luciferase reporter, cherry pick, set 2 (AID 743343); assay type: functional;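 also: transfected cells were stimulated with diluted bursicon conditioned medium after compound addition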
[6] = MC4R antagonists, dose response, counter-screen for LGR2 antagonist project, cell-based, plate reader, cherry pick (AID 743444); assay type: functional;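 also: transfected HEK 293 cells stimulated with alpha-MSH peptide; potency of inhibitors of the alpha-MSH evoked signal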
[7] = molecular target: T1, RNA-editing ligase 1, mitochondrial (Trypanosoma brucei brucei, UniProt P86926); assay: TbREL1 ligase inhibitors, dose response, biochemical, fluorescence, Trypanosoma brucei (AID 1117295); assay type: functional
T1 sequence (P86926 whole entry): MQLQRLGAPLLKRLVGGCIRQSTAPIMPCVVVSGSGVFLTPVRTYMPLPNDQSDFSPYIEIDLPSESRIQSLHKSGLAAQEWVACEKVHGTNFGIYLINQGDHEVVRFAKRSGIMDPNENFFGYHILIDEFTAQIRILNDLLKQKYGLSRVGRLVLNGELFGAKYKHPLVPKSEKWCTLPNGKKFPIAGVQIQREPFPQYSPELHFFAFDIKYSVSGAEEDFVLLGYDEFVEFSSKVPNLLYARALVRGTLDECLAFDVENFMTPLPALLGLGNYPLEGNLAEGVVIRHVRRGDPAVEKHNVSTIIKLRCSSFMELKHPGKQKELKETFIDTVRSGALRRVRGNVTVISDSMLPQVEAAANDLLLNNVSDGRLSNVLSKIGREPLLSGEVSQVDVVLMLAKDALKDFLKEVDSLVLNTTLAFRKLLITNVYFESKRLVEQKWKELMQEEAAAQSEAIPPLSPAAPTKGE

Ephrin type-A receptor 4 = Ephrin type-A receptor 4 (Mus musculus, UniProt Q03137); assay: inhibitors of EphA4 binding to KYL peptide, primary screen, biochemical, colorimetric, mouse EphA4 (AID 689); assay type: functional
Chain of Ephrin type-A receptor 4 (Q03137 whole entry): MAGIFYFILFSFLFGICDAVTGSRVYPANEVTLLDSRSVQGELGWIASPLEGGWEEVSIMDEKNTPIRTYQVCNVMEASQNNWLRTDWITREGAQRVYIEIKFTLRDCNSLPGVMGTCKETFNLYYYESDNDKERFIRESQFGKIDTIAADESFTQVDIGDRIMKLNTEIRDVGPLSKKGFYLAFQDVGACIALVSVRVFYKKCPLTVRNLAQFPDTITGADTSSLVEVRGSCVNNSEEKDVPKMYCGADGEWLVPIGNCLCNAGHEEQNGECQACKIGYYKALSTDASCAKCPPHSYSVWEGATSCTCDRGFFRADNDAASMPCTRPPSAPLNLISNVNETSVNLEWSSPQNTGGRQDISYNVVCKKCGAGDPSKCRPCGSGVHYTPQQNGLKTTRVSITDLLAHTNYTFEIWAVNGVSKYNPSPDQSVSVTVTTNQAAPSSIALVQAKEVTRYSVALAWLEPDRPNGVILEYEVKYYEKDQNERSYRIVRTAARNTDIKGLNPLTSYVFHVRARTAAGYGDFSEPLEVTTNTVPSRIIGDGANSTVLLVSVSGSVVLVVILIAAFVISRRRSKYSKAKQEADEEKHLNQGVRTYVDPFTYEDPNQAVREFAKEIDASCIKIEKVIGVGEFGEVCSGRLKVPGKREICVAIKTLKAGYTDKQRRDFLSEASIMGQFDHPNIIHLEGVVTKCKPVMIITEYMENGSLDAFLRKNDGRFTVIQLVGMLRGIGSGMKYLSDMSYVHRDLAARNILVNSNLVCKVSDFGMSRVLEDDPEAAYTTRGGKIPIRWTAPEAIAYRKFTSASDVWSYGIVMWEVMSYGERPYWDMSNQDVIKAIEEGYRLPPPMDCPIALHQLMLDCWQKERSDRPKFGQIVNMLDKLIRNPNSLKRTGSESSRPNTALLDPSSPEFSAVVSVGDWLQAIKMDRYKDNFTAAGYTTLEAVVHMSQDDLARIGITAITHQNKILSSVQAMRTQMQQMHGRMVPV

[8] = molecular target: Luciferin 4-monooxygenase (Photinus pyralis, UniProt P08659); assay: Counter Screen for Luciferase-based Assay Positives. [Related pubchem assays: 620, 618, 411 ]
Chain of Luciferin 4-monooxygenase (P08659 whole entry): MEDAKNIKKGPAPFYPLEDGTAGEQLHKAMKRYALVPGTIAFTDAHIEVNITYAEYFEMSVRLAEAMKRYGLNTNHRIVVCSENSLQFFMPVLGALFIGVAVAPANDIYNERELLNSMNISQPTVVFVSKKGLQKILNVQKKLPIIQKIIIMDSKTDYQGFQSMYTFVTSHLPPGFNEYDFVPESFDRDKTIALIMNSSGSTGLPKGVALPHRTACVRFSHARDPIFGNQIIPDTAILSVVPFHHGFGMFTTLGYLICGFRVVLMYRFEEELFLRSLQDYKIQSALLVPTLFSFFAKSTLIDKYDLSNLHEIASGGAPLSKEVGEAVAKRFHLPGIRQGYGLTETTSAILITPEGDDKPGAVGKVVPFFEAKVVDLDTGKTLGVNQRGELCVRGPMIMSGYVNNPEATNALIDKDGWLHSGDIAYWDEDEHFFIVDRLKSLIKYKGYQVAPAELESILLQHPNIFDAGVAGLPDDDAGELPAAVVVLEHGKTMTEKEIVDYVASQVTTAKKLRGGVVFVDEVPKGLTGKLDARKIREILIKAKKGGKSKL

HT-1080 = assay: cytotoxicity in HT1080 fibrosarcoma cells, cell-based, fluorescence readout (AID 620); assay type: functional; conditions: Homo sapiens
Estrogen receptor beta = Estrogen receptor beta (Homo sapiens, UniProt Q92731);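 also: recombinant ER-beta bound to coactivator SRC1 peptide in presence of estradiol agonist; inhibitors block coactivator peptide binding and lower the FRET signal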
Chain of Estrogen receptor beta (Q92731 whole entry): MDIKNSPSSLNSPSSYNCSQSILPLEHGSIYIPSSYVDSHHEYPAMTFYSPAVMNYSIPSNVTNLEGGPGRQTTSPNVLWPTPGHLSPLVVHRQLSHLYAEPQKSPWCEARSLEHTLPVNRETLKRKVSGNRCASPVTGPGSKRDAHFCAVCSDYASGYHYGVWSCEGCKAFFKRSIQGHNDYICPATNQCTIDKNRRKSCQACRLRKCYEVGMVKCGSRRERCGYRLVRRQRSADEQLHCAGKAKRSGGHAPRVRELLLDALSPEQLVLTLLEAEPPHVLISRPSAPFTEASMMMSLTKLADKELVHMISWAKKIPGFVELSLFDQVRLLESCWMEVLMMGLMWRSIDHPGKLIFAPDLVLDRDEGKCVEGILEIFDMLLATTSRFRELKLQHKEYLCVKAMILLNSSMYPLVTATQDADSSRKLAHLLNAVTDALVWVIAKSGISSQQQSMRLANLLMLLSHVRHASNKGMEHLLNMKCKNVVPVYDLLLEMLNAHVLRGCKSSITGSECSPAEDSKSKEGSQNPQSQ

Cytochrome P450 2D6 = Cytochrome P450 2D6 (Homo sapiens, UniProt P10635);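 also: CYP2D6 member of a cytochrome P450 panel assay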
Chain of Cytochrome P450 2D6 (P10635 whole entry): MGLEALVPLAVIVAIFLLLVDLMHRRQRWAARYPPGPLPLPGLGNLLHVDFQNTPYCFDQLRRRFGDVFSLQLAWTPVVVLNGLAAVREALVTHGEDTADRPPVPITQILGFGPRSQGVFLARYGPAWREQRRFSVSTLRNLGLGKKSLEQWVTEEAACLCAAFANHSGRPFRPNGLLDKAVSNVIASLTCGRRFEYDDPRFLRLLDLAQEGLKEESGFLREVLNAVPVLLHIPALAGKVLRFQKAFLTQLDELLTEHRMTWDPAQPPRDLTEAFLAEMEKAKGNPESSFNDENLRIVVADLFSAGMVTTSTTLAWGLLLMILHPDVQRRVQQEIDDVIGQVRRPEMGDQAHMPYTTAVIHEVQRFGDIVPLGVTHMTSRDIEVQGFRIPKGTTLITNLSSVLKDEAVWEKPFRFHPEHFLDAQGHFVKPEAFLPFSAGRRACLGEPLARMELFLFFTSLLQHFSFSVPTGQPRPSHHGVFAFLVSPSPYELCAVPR

Cytochrome P450 1A2 = molecular target: T2, Cytochrome P450 1A2 (Homo sapiens, UniProt P05177);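 also: PubChem cytochrome P450 panel assay, CYP1A2 panel member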
T2 sequence (P05177 whole entry): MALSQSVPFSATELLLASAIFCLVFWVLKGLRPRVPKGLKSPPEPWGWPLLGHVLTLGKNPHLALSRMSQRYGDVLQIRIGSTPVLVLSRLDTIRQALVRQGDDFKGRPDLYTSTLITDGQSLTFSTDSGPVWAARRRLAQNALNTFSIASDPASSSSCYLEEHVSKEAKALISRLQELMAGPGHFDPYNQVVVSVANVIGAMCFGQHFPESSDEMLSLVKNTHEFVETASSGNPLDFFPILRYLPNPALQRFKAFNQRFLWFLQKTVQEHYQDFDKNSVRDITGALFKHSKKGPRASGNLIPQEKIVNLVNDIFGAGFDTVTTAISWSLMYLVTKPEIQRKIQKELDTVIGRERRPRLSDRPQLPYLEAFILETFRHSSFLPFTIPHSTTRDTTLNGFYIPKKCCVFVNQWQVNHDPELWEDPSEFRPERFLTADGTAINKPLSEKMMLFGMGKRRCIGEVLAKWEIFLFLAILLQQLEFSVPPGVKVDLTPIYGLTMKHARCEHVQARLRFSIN

Cytochrome P450 3A4 = Cytochrome P450 3A4 (Homo sapiens, UniProt P08684);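 also: CYP3A4 tested as one member of a cytochrome P450 panel screen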
Chain of Cytochrome P450 3A4 (P08684 whole entry): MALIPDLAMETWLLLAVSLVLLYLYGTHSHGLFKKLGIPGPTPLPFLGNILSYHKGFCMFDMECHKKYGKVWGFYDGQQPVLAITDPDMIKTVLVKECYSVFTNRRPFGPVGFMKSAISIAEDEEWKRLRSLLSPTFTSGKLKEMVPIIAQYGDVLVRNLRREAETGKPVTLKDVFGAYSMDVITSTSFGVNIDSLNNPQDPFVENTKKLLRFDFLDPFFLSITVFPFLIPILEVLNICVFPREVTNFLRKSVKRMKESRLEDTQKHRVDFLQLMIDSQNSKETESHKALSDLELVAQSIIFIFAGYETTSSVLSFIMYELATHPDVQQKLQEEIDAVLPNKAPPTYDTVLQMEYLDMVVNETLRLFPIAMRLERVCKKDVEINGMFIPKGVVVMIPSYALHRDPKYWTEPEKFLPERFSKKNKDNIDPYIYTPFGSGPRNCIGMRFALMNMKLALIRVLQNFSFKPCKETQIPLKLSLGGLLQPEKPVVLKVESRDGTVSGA

SMILES: O=C(NCc1ccc(Cl)cc1)c1ccccc1Oc1ccccc1
IC50 [1]: > 100 µM (active)

SMILES: Cc1cc(C)c2nc(NNC(=O)c3ccc(S(=O)(=O)N4CCCCC4)cc3)sc2c1
EC50 [2]: 1.92 µM (active)
EC50 (Streptococcus): 4.91 µM (active)
IC50 [3]: 19 µM (inactive)

SMILES: CC(=O)c1ccc(NC(=O)c2noc3c2CCC3)cc1
AC50 (HEK293): 1.92 µM (active)
AC50 [4]: > 52 µM (inactive)
AC50 [5]: 2.77 µM (active)
AC50 [6]: 3.68 µM (active)

SMILES: CC(=O)OC1(c2ccc(C)cc2)CN2CCC1c1ccccc12 (configuration not stated)
IC50 (Ephrin type-A receptor 4): > 100 µM (not active)

SMILES: COCCn1c(C)cc(C(=O)CSc2nnc3ccccn23)c1C
EC50 [8]: < 0.2 µM (active)
EC50 (HT-1080): > 50 µM (not active)
AC50 (HEK293): 2.88 µM (active)
AC50 [4]: > 52 µM (inactive)
AC50 [5]: 4.03 µM (active)
AC50 [6]: 3.66 µM (active)

SMILES: COc1ccc(N2CCN(C(=O)CCCn3c(=O)[nH]c4ccsc4c3=O)CC2)cc1
IC50 (Estrogen receptor beta): > 50 µM (not active)

Now from value to compound:

IC50 [7]: > 96.6 µM (inactive)
SMILES: COc1cc(CN(CCN(C)C)Cc2ccccc2)ccc1OCc1ccccc1

IC50 [1]: > 100 µM (active)
AC50 (Cytochrome P450 2D6): 44.7 µM (inconclusive)
AC50 (Cytochrome P450 1A2): 17.8 µM (inconclusive)
AC50 (Cytochrome P450 3A4): 15.8 µM (inconclusive)
SMILES: S=C(Nc1cccc(Cl)c1)NC1CCCCC1

IC50 (Estrogen receptor beta): > 50 µM (not active)
SMILES: COc1cc(NC(=O)c2cccs2)c(C(=O)OCC(=O)NC(=O)NC(C)(C)C)cc1OC
